Experimental data taken from patent US8148354B2, “Use of 20(S)-protopanaxadiol in manufacture of antidepressants” (priority 2006, dated 2012).
Marks after values point to notes of the source that are not given here.

Legend:
[1] = system: Reserpine-Induced Ptosis in Mice; experiment: Inhibition of reserpine-induced ptosis; assay type: in vivo, Kunming mice; conditions: reserpine 2 mg/kg i.p., 10 mice per group
Experimental: Fifty male Kunming mice, 8-9 weeks old and weighing 18-22 g, were randomly divided by weight into 5 groups, and administered by gavage a single dose of one of the drugs listed in Table 3 for 10 consecutive days. Sixty minutes after the last dose, mice were given an i.p. injection of reserpine (2 mg/kg). After 60 minutes, mice were put on a bracketed stand and observed for 2 minutes. The number of animals with at least one upper eyelid closed was recorded. Fisher's exact test was used for statistical analysis.

[2] = system: Reserpine-Induced Akinesia in Mice; experiment: Inhibition of akinesia induced by reserpine; assay type: in vivo, Kunming mice; conditions: reserpine 2.5 mg/kg i.p., 10 mice per group
Experimental: Fifty male Kunming mice, 8-9 weeks old and weighing 18-22 g, were randomly divided by weight into 5 groups, and administered by gavage a single dose of one of the drugs listed in Table 5 for 10 consecutive days. Sixty minutes after the last dose, mice were given a reserpine injection (2.5 mg/kg) delivered i. p. Sixty minutes later, mice were individually placed on the center of a round filter paper 7.5 cm in diameter. After a 30-sec observation, the number of animals that were still on the filter paper was recorded. Fisher's exact test was used for statistical analysis.

[3] = system: chronic unpredictable stress rats; experiment: Chronic unpredictable stress testing of rats (open-field test); assay type: in vivo; conditions: mean ± SD
Experimental: Male stressed SD rats were housed individually and exposed for 21 days to the following unpredictable stressors: ice water swimming (4° C., 5 min), tail pinch (3 min), water deprivation (40 h), food deprivation (40 h), paired feeding, wet bedding, binding, and overnight lighting, each stress was applied two or three times. Animals in the non-stressed control group were housed 5 per cage. An open-field test was used to observe behavior. A large cubiform box (80×80×40 cm) was employed in which the floor was divided into 25 grids of equal size using white lines, with the same size grids also marked on the surrounding walls. The number of floor grids crossed (crossing) and the number of rearing up on hind limbs (rearing) were recorded. Observations of each rat were made every 3 minutes on the 22nd day. T test was used for statistical analysis.

[4] = system: monoamine neurotransmitter and its metabolite in cerebral tissues; experiment: Measure of cerebral neurotransmitters in rats wearing shackles (HPLC-ECD); assay type: in vivo, SD rats; conditions: shackle model rats, brain
Text: (i) Modeling Method: Sixty male SD rats, 8-9 weeks old and weighing 200-250 g, were randomly divided into 6 groups and subjected to gavage once a day as shown in Table 9. On the first day, individually housed rats were fitted with a cylindrical plastic shackle-like device composed of two pieces of red organic glass 0.2 cm-thick and 4 cm in diameter. The device could be adjusted according to the size of the animals and was worn for 21 days.
Preparation of Cerebral Tissues: Rats were Sacrificed by Femoral Arterial Exsanguination, and whole brains were weighed after the cerebellum was excised and homogenized in 950 μl (0.1 mol/L) perchloric acid (containing 0.05% Na2EDTA) and 50 μl (2 μg/ml) of DHBA. This material was then centrifuged at 11,000 rpm/for 10 minutes and, 10 μl of the supernatant were taken for testing. Results were as follows: The amount of each neurotransmitter was shown as the wet weight (ng/g) in cerebral tissues.
Chromatographic conditions: Chromatography was performed with a Shimadzu HPLC system, which was equipped with an L-BCD-6A electrochemical detector (detection range: 0.1-500 nA), a chromatographic column of 5 μm, 200 mm×4.6 mm ID glassy carbon electrode; the flow rate employed was 1.2 ml/min, the operating voltage was +0.75 V; and oxygenation was maintained. An NP2000 workstation was used for data recording and processing (Intelligence Information Institute of Zhejiang University). The potential difference between the working electrode and reference electrode was 0.75 V. The mobile phase, prepared with deionized water and degassed, consisted of 0.1 mmol/L citric acid-0.1 mmol/L sodium acetate buffer at pH4.37 with 10% ethanol. A mixture of a B81.2 mmol/L ion pair and 1.3 mmol/L Di-n-butylamine was used after degasification of the G4 glass filler.
Preparation of standard solutions: The stock solutions were 2 μg/ml for DHBA and 20 μg/ml for NE, DA, DOPAC, 5-HT, 5-HIAA and HAV. Standard solution 6 was prepared by mixing 20 μl each of NE, DA, DOPAC, 5-HT, 5-HIAA and HAV, then 80 μl of 0.1 mM mmol/LHCLO4 were added. Standard solution 7 (100 ng/ml) was prepared by mixing 50 μl of standard solution 6, 50 μl DHBA and 900 μl 0.1 mmol/LHCLO4. Standard solution 7 (10 μl) was used for HPLC.

[5] = system: 5-HTP-Induced Tremors in Mice; experiment: L-5-HTP induced tremor testing of mice; assay type: in vivo, Kunming mice; conditions: 10 mice per group
Experimental: Seventy male Kunming mice, 8-9 weeks old and weighing 18-22 g, were randomly divided by weight into 7 groups and administered a single dose by gavage as shown in Table 13. […] Then, mice were individually put into cages (16×27 cm) and observed for 20 minutes. The number of animals with tremors was recorded. Fisher's exact test was used for statistical analysis.

[6] = system: Levodopa Behavior in Mice; experiment: Enhancement of the behavioral effects of levodopa on mice; assay type: in vivo, Kunming mice; conditions: 10 mice per group
Experimental: Seventy male Kunming mice, 8-9 weeks old and weighing 18-22 g, were randomly divided by weight […] into 7 groups and administered a single dose by gavage as shown in Table 14. Sixty minutes later, levodopa at a dose of 200 mg/kg (the maximal dose not inducing running in mice) was administered i. p. Then, mice were put into separate cages and observed for 30 minutes. The number of running mice was recorded. Fisher's exact test was used for statistical analysis.

With `CC(C)=CCC[C@](C)(O)[C@H]1CC[C@]2(C)[C@@H]1[C@H](O)C[C@@H]1[C@@]3(C)CC[C@H](O)C(C)(C)[C@@H]3CC[C@]12C` [20(S)-protopanaxadiol] the “Number of animals with at least one upper eyelid closed” value ([1]; 3.75 mg/kg × 10 i.g.) was 9, the “Number of animals with at least one upper eyelid closed” value ([1]; 7.5 mg/kg × 10 i.g.) was 8 and the “Number of animals Remaining on the filter paper for 30 seconds” value (“Number of animals Remaining” for short) ([2]; 3.75 mg/kg × 10 i.g.) was 8. The “Number of animals Remaining” value ([2]; 7.5 mg/kg × 10 i.g.) was 7, the Number of crossing ([3]; 3.33 mg/kg × 21 i.g.) was 32.90 ± 13.19 times/3 min and the Number of rearing ([3]; 3.33 mg/kg × 21 i.g.) was 6.50 ± 2.64 times/3 min. For the same molecule, the “Concentration of monoamine neurotransmitter and its metabolite: 5-HIAA” value (from here on “Concentration … 5-HIAA”) ([4]; 3.33 mg/kg × 21 i.g.) was 8.78 ng/g nerve tissues, the “Concentration of monoamine neurotransmitter and its metabolite: DA” value (from here on “Concentration … DA”) ([4]; 3.33 mg/kg × 21 i.g.) was 375.96 ng/g nerve tissues and the “Concentration of monoamine neurotransmitter and its metabolite: DOPAC” value (from here on “Concentration … DOPAC”) ([4]; 3.33 mg/kg × 21 i.g.) was 21.57 ng/g nerve tissues. The “Concentration … 5-HIAA” value ([4]; 6.67 mg/kg × 21 i.g.) was 9.02 ng/g nerve tissues, the “Concentration of monoamine neurotransmitter and its metabolite: 5-HT” value (“Concentration … 5-HT” for short) ([4]; 6.67 mg/kg × 21 i.g.) was 113.18 ng/g nerve tissues and the “Concentration … DA” value ([4]; 6.67 mg/kg × 21 i.g.) was 401.67 ng/g nerve tissues. For the same molecule, the “Concentration … DOPAC” value ([4]; 6.67 mg/kg × 21 i.g.) was 22.17 ng/g nerve tissues, the “Concentration of monoamine neurotransmitter and its metabolite: HAV” value (“Concentration … HAV” for short) ([4]; 6.67 mg/kg × 21 i.g.) was 56.37 ng/g nerve tissues and the “Concentration … 5-HIAA” value ([4]; 13.33 mg/kg × 21 i.g.) was 8.62 ng/g nerve tissues. The “Concentration … 5-HT” value ([4]; 13.33 mg/kg × 21 i.g.) was 102.81 ng/g nerve tissues, the “Concentration … DA” value ([4]; 13.33 mg/kg × 21 i.g.) was 394.41 ng/g nerve tissues and the “Concentration … DOPAC” value ([4]; 13.33 mg/kg × 21 i.g.) was 20.68 ng/g nerve tissues. The “Concentration … HAV” value ([4]; 13.33 mg/kg × 21 i.g.) was 53.19 ng/g nerve tissues, the “Concentration of monoamine neurotransmitter and its metabolite: NE” value ([4]; 13.33 mg/kg × 21 i.g.) was 11.04 ng/g nerve tissues and the “Number of running animals” value ([5]; 3.75 mg/kg × 1 i.g., with 5-HTP 200 mg/kg i.p.) was 2. For the same molecule, the “Number of running animals” value ([6]; 3.75 mg/kg × 1 i.g., with levodopa 200 mg/kg i.p.) was 2.
For `CNCCC(Oc1ccc(C(F)(F)F)cc1)c1ccccc1` (stereo not drawn) [Fluoxetine, reference compound], the “Number of animals with at least one upper eyelid closed” value ([1]; 18 mg/kg × 10 i.g.) was 4*, the “Number of animals Remaining” value ([2]; 18 mg/kg × 10 i.g.) was 3** and the Number of crossing ([3]; 16 mg/kg × 21 i.g.) was 44.40 ± 1.45 times/3 min. The Number of rearing ([3]; 16 mg/kg × 21 i.g.) was 11.30 ± 3.43 times/3 min, the “Concentration … 5-HIAA” value ([4]; 16 mg/kg × 21 i.g.) was 8.42 ng/g nerve tissues and the “Concentration … 5-HT” value ([4]; 16 mg/kg × 21 i.g.) was 136.88 ± ng/g nerve tissues. For the same molecule, the “Concentration … DA” value ([4]; 16 mg/kg × 21 i.g.) was 406.97 ng/g nerve tissues, the “Concentration … DOPAC” value ([4]; 16 mg/kg × 21 i.g.) was 21.53 ng/g nerve tissues and the “Concentration … HAV” value ([4]; 16 mg/kg × 21 i.g.) was 62.17 ± ng/g nerve tissues. The “Concentration of monoamine neurotransmitter and its metabolite: NE” value ([4]; 16 mg/kg × 21 i.g.) was 13.67 ± ng/g nerve tissues, the “Number of running animals” value ([5]; 18 mg/kg × 1 i.g., with 5-HTP 200 mg/kg i.p.) was 8*** and the “Number of running animals” value ([5]; 18 mg/kg × 1 i.g., without 5-HTP) was 0. For the same molecule, the “Number of running animals” value ([6]; 18 mg/kg × 1 i.g., with levodopa 200 mg/kg i.p.) was 7** and the “Number of running animals” value ([6]; 18 mg/kg × 1 i.g., without levodopa) was 0.
